This is an account of results in patent US20110065582A1, “ENVIRONMENTALLY FRIENDLY SLOW-RELEASE PESTICIDE FORMULATIONS” (Consejo Superior De Investigaciones Cientificas, priority 2008, published 2011).

The nature of series [1]: Adsorption of sulfentrazone in PC vesicle-montmorillonite suspension as a function of buffer pH. Type of series: physicochemical. Particulars: 5 g/L montmorillonite, 6 mM PC, 2.6 mM SFZ. As for the experimental part: The formulations of PC with different herbicides were prepared by dissolving various quantities of the herbicide in question in a solution of 6 mM PC through sonication, and subsequent adding of montmorillonite. The herbicides employed were alachlor (hydrophobic in nature), atrazine (of basic nature) and sulfentrazone (of acid nature). […] The added amounts of the herbicides were 1.5-14 mM for alachlor, 1.8-2.4 mM for atrazine and 1.3-5.7 mM for sulfentrazone. The clay concentration was 1.6, 5 or 10 g/L. Following agitation during 24 h the suspensions were centrifuged at 20000 g during 10 min, the remaining herbicide in the supernatants was analysed, and the precipitates were lyophilised giving rise to the formulations. The herbicides were analysed by HPLC (Shimadzu Model 10A) fitted with a PDA detector. The reverse phase column was a Kromasil 100 C18 of 15 cm. The flow speed was 1.0 mL min−1. […]
The final concentrations of the formulations and the percentage in weight of the herbicides in the formulation are shown in Table 2. […] The active ingredient content was determined by means of sonication of 5 mg of each formulation in 20 ml of methanol. The suspensions were centrifuged and the herbicide in the supernatants was analysed. […]

Series [2] can be described thus: Speciation of SFZ in solution. Type of series: physicochemical. An excerpt:
A primordial factor in the encapsulation of acidic molecules is the pH of the solution. […] However, small anionic species can also permeabilise the bilayers of PC. In fact, SFZ adsorption at pH 7.0 was 4 times higher than the amount of neutral species in solution.

The conditions of series [3]: 96 h of irradiation; cited from earlier work.

With `Cc1nn(-c2cc(NS(C)(=O)=O)c(Cl)cc2Cl)c(=O)n1C(F)F` [SFZ, sulfentrazone], in series [1] (buffer of pH 5.0), the “adsorption of SFZ” value is on record as 69.5%. The “adsorption of SFZ” value in series [1] (buffer of pH 7.0 Trizma-HCl 1 M) came to 11.8%. Besides, in series [2] (pH 5.0), the “speciation in solution: anions” value was found to be 2.7% and the “speciation in solution: neutral molecules” value came out at 97.3%. In addition, in series [2] (pH 7.0), the “speciation in solution: anionic species” value is on record as 73.4% and the “speciation in solution: neutrals” value is recorded as 26.6%.

Consider `CCCN(CCC)c1c([N+](=O)[O-])cc(C(F)(F)F)cc1[N+](=O)[O-]` [free trifluralin, trifluralin], for which the “activity retained following irradiation” value in series [3] was 30%.
